The CC50 is the concentration at which the toxic effect on the cells reaches its halfway point. Broadly, the IC50 is the point on the concentration scale where inhibition reaches its midpoint. In general, AC50 refers to the concentration at which the activity in the assay is half-maximal. As a reminder, the EC50 is the midpoint of the concentration-response curve.

Calls of active or inactive are those of the source. For most assays here, no stated cut-off is given here; in the data, active = IC50 of 5 µM or less and inactive = more. A value given as a limit tells only on which side of the number the result lay.

For one test, the system named is Vero. The test can be described thus: viability of Vero cells under compound – cytotoxicity control for flavivirus capping enzyme inhibitors (AID 588742). The conditions noted are these: Chlorocebus sabaeus. It is filed as functional.
A further test addresses Protein Tat (Human immunodeficiency virus type 1 group M subtype B (isolate HXB2)(HIV-1), UniProt P04608). It is filed as functional.
For a further test, the target named is Heat shock protein HSP90 (Homo sapiens, UniProt P07900+P08238). Briefly: Hsp90 blockade concentration-response – dose response (AID 712). It is filed as functional.
The target of test [1] is T1, Mannose-6-phosphate isomerase (Homo sapiens, UniProt P34949).
T1 sequence (P34949 whole entry): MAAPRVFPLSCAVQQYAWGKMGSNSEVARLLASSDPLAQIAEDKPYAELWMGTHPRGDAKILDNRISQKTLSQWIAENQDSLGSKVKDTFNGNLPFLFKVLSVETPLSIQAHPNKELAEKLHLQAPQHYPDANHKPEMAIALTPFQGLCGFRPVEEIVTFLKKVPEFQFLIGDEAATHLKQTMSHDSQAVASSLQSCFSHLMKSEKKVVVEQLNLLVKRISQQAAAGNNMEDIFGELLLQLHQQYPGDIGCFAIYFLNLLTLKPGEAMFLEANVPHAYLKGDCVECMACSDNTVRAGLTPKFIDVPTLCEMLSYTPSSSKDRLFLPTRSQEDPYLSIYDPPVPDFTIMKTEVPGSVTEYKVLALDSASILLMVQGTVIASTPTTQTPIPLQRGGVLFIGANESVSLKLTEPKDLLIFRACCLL
Briefly: MPI inhibition at elevated mannose 6-phosphate – biochemical, fluorescence intensity, high mannose 6-phosphate, primary screen (AID 1220).

Test [2] concerns the target T2, Replicative DNA helicase DnaB (Mycobacterium tuberculosis, UniProt P9WMR3).
T2 sequence (P9WMR3 whole entry): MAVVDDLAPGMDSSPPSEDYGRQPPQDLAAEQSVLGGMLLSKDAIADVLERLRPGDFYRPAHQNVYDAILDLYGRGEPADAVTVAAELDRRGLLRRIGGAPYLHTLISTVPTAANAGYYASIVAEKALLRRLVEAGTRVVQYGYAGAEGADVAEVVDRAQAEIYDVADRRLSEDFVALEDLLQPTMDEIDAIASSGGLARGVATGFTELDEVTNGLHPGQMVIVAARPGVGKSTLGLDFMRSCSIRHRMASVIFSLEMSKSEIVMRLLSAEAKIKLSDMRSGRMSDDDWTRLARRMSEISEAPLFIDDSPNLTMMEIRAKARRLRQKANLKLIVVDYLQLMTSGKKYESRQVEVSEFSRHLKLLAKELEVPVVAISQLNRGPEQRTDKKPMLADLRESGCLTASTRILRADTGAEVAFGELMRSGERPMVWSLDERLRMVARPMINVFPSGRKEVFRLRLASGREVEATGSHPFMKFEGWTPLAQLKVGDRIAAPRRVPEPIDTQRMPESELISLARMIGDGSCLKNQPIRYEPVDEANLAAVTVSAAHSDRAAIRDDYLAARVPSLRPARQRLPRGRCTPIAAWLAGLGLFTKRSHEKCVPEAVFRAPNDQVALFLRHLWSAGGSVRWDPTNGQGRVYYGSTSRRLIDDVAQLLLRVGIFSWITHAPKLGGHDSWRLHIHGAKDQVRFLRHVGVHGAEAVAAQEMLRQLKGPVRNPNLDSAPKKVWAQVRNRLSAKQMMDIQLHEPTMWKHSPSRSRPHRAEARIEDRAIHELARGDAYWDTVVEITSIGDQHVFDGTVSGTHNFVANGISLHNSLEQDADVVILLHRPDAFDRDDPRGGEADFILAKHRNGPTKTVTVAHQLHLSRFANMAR
The test can be described thus: DnaB intein splicing inhibitors, dose response, biochemical, cell-free fluorescence (AID 449749). It is filed as functional.

The target in a further test is T3, Protein RecA (Mycobacterium tuberculosis, UniProt P9WHJ3).
T3 sequence (P9WHJ3 whole entry): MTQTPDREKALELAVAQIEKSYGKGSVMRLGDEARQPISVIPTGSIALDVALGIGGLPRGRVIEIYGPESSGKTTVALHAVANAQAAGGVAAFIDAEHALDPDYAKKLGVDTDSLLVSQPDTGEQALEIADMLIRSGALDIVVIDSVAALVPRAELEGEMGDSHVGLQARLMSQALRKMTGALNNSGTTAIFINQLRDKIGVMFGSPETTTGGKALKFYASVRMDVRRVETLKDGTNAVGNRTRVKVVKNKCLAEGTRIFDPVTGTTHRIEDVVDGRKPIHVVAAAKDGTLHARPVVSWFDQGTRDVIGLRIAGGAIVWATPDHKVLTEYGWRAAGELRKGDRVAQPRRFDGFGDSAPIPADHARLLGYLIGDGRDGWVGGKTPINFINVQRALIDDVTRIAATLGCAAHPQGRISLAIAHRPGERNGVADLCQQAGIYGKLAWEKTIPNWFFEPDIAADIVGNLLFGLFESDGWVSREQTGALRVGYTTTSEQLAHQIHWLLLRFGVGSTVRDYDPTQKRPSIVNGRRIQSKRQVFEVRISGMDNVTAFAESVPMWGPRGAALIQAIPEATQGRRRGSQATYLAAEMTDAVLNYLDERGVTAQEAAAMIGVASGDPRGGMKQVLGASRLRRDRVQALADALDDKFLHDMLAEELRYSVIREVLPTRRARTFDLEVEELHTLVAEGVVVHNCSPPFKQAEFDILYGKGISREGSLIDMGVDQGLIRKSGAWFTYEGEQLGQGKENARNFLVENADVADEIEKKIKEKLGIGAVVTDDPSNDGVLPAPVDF
Briefly: Fluorescence Cell-Free Homogeneous Dose Retest to Identify Inhibitors of RecA-Intein Splicing Activity. [Related pubchem assays (depositor defined):AID2097, AID2223, AID489010, AID492950]. It is filed as functional.

A short description of test [3]: IC50 of insulin release inhibition, rat insulinoma INS-1E line, 5 mM glucose, cell-based (AID 1117331). It is filed as functional.
The nature of test [4]: CellTiter-Glo luminescence survival assay, SW480 colon tumor line, concentration-response curve, half-maximal inhibitory concentration (AID 1117338). Type of test: functional.
Test [5] is described as follows: RKO cell viability reduction, dose response, CellTiter-Glo luminescence (AID 1117322). It is filed as functional.
Test [6] can be described thus: cytotoxicity toward HCT116 cells – cell-based, CellTiter-Glo luminescence, IC50, dose response (AID 1117332). It is filed as functional. To be noted: HCT-116. A general note: In ATP-based viability assays light output follows the ATP content of the culture.
Test [7] in a line: SNU-C1 cell viability reduction, dose response, CellTiter-Glo luminescence (AID 1117323). Type of test: functional, cell-based.
Test [8] can be described thus: cytotoxicity toward Colo320 cells – cell-based, CellTiter-Glo luminescence, IC50, dose response (AID 1117334). Type of test: functional. To be noted: COLO 320.
Test [9] in a line: cytotoxicity toward HT-29 cells – cell-based, CellTiter-Glo luminescence, IC50, dose response (AID 1117330). Type of test: functional.
Test [10] is described as follows: Reduced DLD-1 viability, concentration-response, CellTiter-Glo luminescence (AID 1117352). Type of test: functional.
Test [11] is described as follows: HCT116 cell viability decrease, GSK3B pretreatment – CellTiter-Glo, IC50, dose response (AID 1117339). It is filed as functional. The conditions noted are these: HCT-116.

Chain of Protein Tat (P04608 whole entry): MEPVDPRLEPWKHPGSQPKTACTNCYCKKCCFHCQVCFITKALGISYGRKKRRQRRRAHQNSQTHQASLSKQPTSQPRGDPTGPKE

With `COC(=O)C1=C(O)/C(=C\c2ccc(CNC(=O)C(=O)Nc3ccc(C)cc3)o2)N=C1C`, the CC50 in the test with Vero was 19 µM (active). Moreover, the IC50 on Protein Tat is 22.5 µM (inconclusive).

Take `Oc1ccc(/C=N/c2ccc3ncccc3c2)c(O)c1`: the IC50 at Heat shock protein HSP90 is more than 50 µM; in [1] it was > 50 µM (not active). Moreover, the AC50 in test [2] was 11.5 µM (active). Also, the EC50 at Protein RecA is 29 µM (active).

Regarding `CN1CCN(CCC(=O)N2c3ccccc3Sc3ccc(C(F)(F)F)cc32)CC1` [FTORMETAZINE], in test [3], the IC50 was > 11.1 µM (inactive).

`COc1ccc2c(c1)c1c3n2CCN(C)C3=NCC1` [METRALINDOLE]: the IC50 in test [4], in test [5], in test [6], in [7], in [8] and in test [9] was > 20 µM (inactive) throughout. Also, the IC50 in test [10] and in test [11] was > 20 µM (inactive) in each case.

Values taken from ChEMBL document CHEMBL1201862, “PubChem BioAssay data set” (2004).
